From ChEMBL document CHEMBL6153038, “Uncovering Hericenones from the Fruiting Bodies of Hericium erinaceus through Interdisciplinary Collaboration” (J Nat Prod, 2025)

Legend:
N2a [1] = test: Neuroprotective activity against tunicamycin-induced ER stress in mouse Neuro2a cells assessed as cell viability at 10 to 100 ug/ml pre-incubated for 2 hrs followed by tunicamycin addition for 22 hrs by MTT assay; format: functional, cell-based; conditions: dose 10-100 µg/ml, time 24.0 hrs
N2a [2] = test: Neuroprotective activity against thapsigargin-induced ER stress in mouse Neuro2a cells assessed as cell viability at 10 to 100 ug/ml pre-incubated for 2 hrs followed by thapsigargin addition for 22 hrs by MTT assay; format: functional, cell-based; conditions: dose 10-100 µg/ml, time 24.0 hrs

Row | SMILES | Activity (N2a [1]) | Activity (N2a [2])
1 | CCCCCCCCCCCCCCCC(=O)OCc1cc(OC)c(C[C@H]2O[C@]2(C)CC(=O)C=C(C)C)c(O)c1C=O (racemic) | Not active; No Protective Activity | Not active; No Protective Activity
2 | CCCCCCCCCCCCCCCC(=O)OCc1cc(OC)c2c(c1C=O)OC(/C(C)=C/C(=O)C=C(C)C)C2 (racemic) | Active; Significant Protective Activity | Active; Significant Protective Activity
3 | CCCCCCCCCCCCCCCC(=O)OCc1cc(OC)c2c(c1C=O)OC(/C(C)=C\C(=O)C=C(C)C)C2 (racemic) | Active; Significant Protective Activity | Active; Significant Protective Activity
